# Patent US20100063041A1, “NOVEL PHENYLPROPIONIC ACID DERIVATIVES AS PEROXISOME PROLIFERATOR-ACTIVATED GAMMA RECEPTOR MODULATORS, METHOD OF THE SAME, AND PHARMACEUTICAL COMPOSITION COMPRISING THE SAME” (priority 2007, published 2010)
# Positions count from the first letter of the chain named. pEC50: −log10 of the molar value.
# Tests used:
# Test in all cases: transactivation assay (GAL4 chimeric receptor, luciferase) in CV-1 cells
# Assay type in all cases: cell-based
# Human PPAR-α = target: T1, Human PPAR-α (Homo sapiens, UniProt Q07869); conditions: for Emax: CV-1, Relative Response % to maximum effects of the positive control drug, read-out: Max % Human PPAR-α; for pEC50: CV-1 cells, GAL4 chimeric receptor, 24 hours
# T1 construct: expressed in transfected cells; host or cells: CV-1 (CCL-70, ATCC)
# T1 sequence (Q07869 239-466 limits assumed): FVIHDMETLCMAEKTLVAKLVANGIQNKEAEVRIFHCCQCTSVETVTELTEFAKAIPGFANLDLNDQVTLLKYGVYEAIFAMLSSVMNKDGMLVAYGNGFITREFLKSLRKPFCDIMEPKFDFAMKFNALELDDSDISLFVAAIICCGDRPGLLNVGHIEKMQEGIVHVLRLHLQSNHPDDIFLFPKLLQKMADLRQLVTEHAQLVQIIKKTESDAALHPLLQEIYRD
# Protocol: (§1) Following induction of transient intracellular expression of PPAR-α and -γ, an ability of the inventive compounds to induce transactivation of PPARs via activation of each PPAR was evaluated as an efficacy of the compound (transactivation assay).
# (§2) For this assay, the African green monkey kidney cell line CV-1 (CCL-70, ATCC) was used as a test cell line, and PPAR-α and -γ were murine- and human-derived PPARs. Samples used were compounds prepared in Examples 19, 21, 23, 25, 26, 27, 31, 33, 34, 36, 38, 40, 42, 43 and 50. As a positive control drug, 3-4-[2-(2-phenyl-4-methyl-1,3-oxazole)ethyloxy]phenyl-(2S)-[(1-methyl-3-oxo-3-phenyl)propenyl]aminopropionic acid was used that is a PPAR-α or -γ agonist which was once under development and whose clinical trials and studies were suspended at phase III. A chimeric receptor was adopted to circumvent the probable interference due to endogenous receptor activation (Jian-Shen Q. et al., Mol Cell Biol (1995) 15(3):1817-1825). The chimeric receptor was constructed as a fusion of a PPAR-α or -γ ligand-binding domain with a DNA-binding domain of GAL4 which is a yeast transactivator.
# (§3) The CV-1 cells were transiently transfected with each of chimeric receptor-expressing DNA constructs and each of DNA constructs comprising 5 copies of the GAL4 DNA-binding domain and capable of inducing expression of firefly luciferase or Renilla luciferase using a Lipofectamine Plus reagent (Invitrogen, USA). After transfection for 3 hours, the culture media were replaced with DMEM containing the above samples and 10% fetal bovine serum. 24 hours later, the firefly luciferase activity and Renilla luciferase activity were continuously assayed while adding an equal amount of a dual luciferase assay reagent (Promega, USA) to the cell-containing media. The transfection efficiency was normalized against Renilla luciferase activity (Motomura W. et al., Int J Cancer (2004) 108(1):41-6). The PPAR-α and -γ activity was determined by calculating Relative Response % to maximum effects of the positive control drug, and conducting multiple dose evaluation of the inventive compounds to calculate EC50, which is the concentration of a drug which produces 50% activation relative to maximum effects of the inventive compounds, by nonlinear regression analysis.
# Human PPAR-γ = target: T2, Human PPAR-γ (Homo sapiens, UniProt P37231); conditions: for Emax: CV-1, Relative Response % to maximum effects of the positive control drug, read-out: Max % Human PPAR-γ; for pEC50: CV-1 cells, GAL4 chimeric receptor, 24 hours
# T2 construct: expressed in transfected cells; host or cells: CV-1 (CCL-70, ATCC)
# T2 sequence (P37231 238-503 limits assumed): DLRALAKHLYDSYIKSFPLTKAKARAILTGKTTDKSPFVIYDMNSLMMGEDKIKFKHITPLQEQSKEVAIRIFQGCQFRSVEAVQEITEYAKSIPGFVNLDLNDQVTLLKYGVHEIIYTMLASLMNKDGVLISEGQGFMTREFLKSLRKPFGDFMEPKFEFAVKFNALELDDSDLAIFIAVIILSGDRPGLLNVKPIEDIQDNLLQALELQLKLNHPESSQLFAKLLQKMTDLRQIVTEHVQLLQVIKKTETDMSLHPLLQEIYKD
# Protocol: as §1, §2, §3
# Mouse PPAR-α = target: T3, Mouse PPAR-α (Mus musculus, UniProt P23204); conditions: for Emax: CV-1, Relative Response % to maximum effects of the positive control drug, read-out: Max % Mouse PPAR-α; for pEC50: CV-1 cells, GAL4 chimeric receptor, 24 hours
# T3 construct: expressed in transfected cells; host or cells: CV-1 (CCL-70, ATCC)
# T3 sequence (P23204 239-466 limits assumed): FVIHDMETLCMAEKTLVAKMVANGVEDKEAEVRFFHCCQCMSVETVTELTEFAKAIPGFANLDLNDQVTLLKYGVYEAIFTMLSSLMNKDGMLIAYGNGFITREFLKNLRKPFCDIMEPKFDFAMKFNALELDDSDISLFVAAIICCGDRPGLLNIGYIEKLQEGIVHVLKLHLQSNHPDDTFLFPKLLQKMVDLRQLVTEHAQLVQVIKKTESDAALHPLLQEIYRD
# Protocol: as §1, §2, §3
# Mouse PPAR-γ = target: T4, Mouse PPAR-γ (Mus musculus, UniProt P37238); conditions: for Emax: CV-1, Relative Response % to maximum effects of the positive control drug, read-out: Max % Mouse PPAR-γ; for pEC50: CV-1 cells, GAL4 chimeric receptor, 24 hours
# T4 construct: expressed in transfected cells; host or cells: CV-1 (CCL-70, ATCC)
# T4 sequence (P37238 238-503 limits assumed): T2 sequence (P37231 238-503 limits assumed) with S93N, V98I, S146N, L226V, Q245H
# Protocol: as §1, §2, §3
SMILES,Emax (Human PPAR-α) [%],Emax (Human PPAR-γ) [%],pEC50 (Human PPAR-γ),Emax (Mouse PPAR-α) [%],Emax (Mouse PPAR-γ) [%],pEC50 (Mouse PPAR-γ),pEC50 (Human PPAR-α),pEC50 (Mouse PPAR-α)
"CCO[C@@H](Cc1ccc(OCc2sc(-c3ccc(-c4cc(COC)no4)cc3)cc2C)cc1)C(=O)O [Example 40, (S)-2-ethoxy-3-(4-((5-(4-(3-(methoxymethyl)isoxazol-5-yl)phenyl)-3-methylthiophen-2-yl)methoxy)phenyl)propionic acid]",7,31,7.72,5,30,6.96,,
"CCO[C@@H](Cc1ccc(OCc2sc(-c3ccc(-c4nnn(C(C)C)n4)cc3)cc2C)cc1)C(=O)O [Example 31, (S)-2-ethoxy-3-(4-((5-(4-(2-isopropyl-2H-tetrazol-5-yl)phenyl)-3-methylthiophen-2-yl)methoxy)phenyl)propionic acid]",21,25,7.00,10,23,7.24,6.32,5.51
"CCO[C@@H](Cc1ccc(OCc2sc(-c3ccc(C(=O)N4CCOCC4)cc3)cc2C)cc1)C(=O)O [Example 17, (S)-2-ethoxy-3-(4-((3-methyl-5-(4-(morpholino-4-carbonyl)phenyl)thiophen-2-yl)methoxy)phenyl)propionic acid]",12,47,5.90,11,117,4.84,5.49,
"CCO[C@@H](Cc1ccc(OCc2sc(-c3ccc(C4=NCCCO4)cc3)cc2C)cc1)C(=O)O [Example 19, (S)-3-(4-((5-(4-(5,6-dihydro-4H-1,3-oxazin-2-yl)phenyl)-3-methylthiophen-2-yl)methoxy)phenyl)-2-ethoxypropionic acid]",44,43,7.35,19,43,6.55,5.18,5.17
"CCO[C@@H](Cc1ccc(OCc2sc(-c3ccc(-c4cc(C)no4)cc3)nc2C)cc1)C(=O)O [Example 47, (S)-2-ethoxy-3-(4-((4-methyl-2-(4-(3-methylisoxazol-5-yl)phenyl)thiazol-5-yl)methoxy)phenyl)propionic acid]",60,50,7.09,71,70,6.68,5.85,6.25
"CCO[C@@H](Cc1ccc(OCc2sc(-c3ccc(C4=Nc5ccccc5OC4)cc3)cc2C)cc1)C(=O)O [Example 23, (S)-3-(4-((5-(4-(2H-benzo[b][1,4]oxazin-3-yl)phenyl)-3-methylthiophen-2-yl)methoxy)phenyl)-2-ethoxypropionic acid]",44,83,7.19,43,67,6.78,5.70,6.98
"CCO[C@@H](Cc1ccc(OCc2sc(-c3ccc(-c4cc(C(=O)NC)no4)cc3)cc2C)cc1)C(=O)O [Example 38, (S)-2-ethoxy-3-(4-((3-methyl-5-(4-(3-(methylcarbamoyl)isoxazol-5-yl)phenyl)thiophen-2-yl)methoxy)phenyl)propionic acid]",51,68,7.00,49,81,6.74,5.29,5.24

# The remaining lines, values ahead:
Emax (Human PPAR-α) [%],Emax (Human PPAR-γ) [%],pEC50 (Human PPAR-γ),Emax (Mouse PPAR-α) [%],Emax (Mouse PPAR-γ) [%],pEC50 (Mouse PPAR-γ),pEC50 (Human PPAR-α),pEC50 (Mouse PPAR-α),SMILES
31,75,7.74,31,81,6.75,6.32,5.46,"CCO[C@@H](Cc1ccc(OCc2sc(-c3ccc(-c4nc(C)c(C)o4)cc3)cc2C)cc1)C(=O)O [Example 34, (S)-3-(4-((5-(4-(4,5-dimethyloxazol-2-yl)phenyl)-3-methylthiophen-2-yl)methoxy)phenyl)-2-ethoxypropionic acid]"
63,48,7.02,35,48,6.53,5.28,6.35,"CCO[C@@H](Cc1ccc(OCc2sc(-c3ccc(-c4noc(C)n4)cc3)cc2C)cc1)C(=O)O [Example 25, (S)-2-ethoxy-3-(4-((3-methyl-5-(4-(5-methyl-1,2,4-oxadiazol-3-yl)phenyl)thiophen-2-yl)methoxy)phenyl)propionic acid]"
19,45,7.49,23,38,7.08,5.85,5.31,"CCO[C@@H](Cc1ccc(OCc2sc(-c3ccc(-c4csnn4)cc3)cc2C)cc1)C(=O)O [Example 24, (S)-3-(4-((5-(4-(1,2,3-thiadiazol-4-yl)phenyl)-3-methylthiophen-2-yl)methoxy)phenyl)-2-ethoxypropionic acid]"
52,66,7.31,31,48,6.93,5.91,6.42,"CCO[C@@H](Cc1ccc(OCc2sc(-c3ccc(-c4nnn(C)n4)cc3)cc2C)cc1)C(=O)O [Example 29, (S)-2-ethoxy-3-(4-((3-methyl-5-(4-(2-methyl-2H-tetrazol-5-yl)phenyl)thiophen-2-yl)methoxy)phenyl)propionic acid]"
